According to ChEMBL document CHEMBL1122826, “4-[2-(Di-n-propylamino)ethyl]-2(3H)-indolone: a prejunctional dopamine receptor agonist” (J Med Chem, 1985):

Target: Dopamine receptor
Test: Inhibitory activity against constrictor response to electrical stimulation in the isolated perfused rabbit ear artery(REA) expressing dopamine receptor
Set-up: species or system Oryctolagus cuniculus

Compound	EC50
CCCN(CCC)CCc1cccc(NC(C)=O)c1	> 1000 nM
CCCN(CCC)CCc1cccc(O)c1	700 nM
